One test concerns the target GST-Tagged Kat6B (Homo sapiens (Human), UniProt Q8WYB5). Nature of the test: Kat6B IC50 using GST-tagged Kat6B (radioisotope-based filtration assay). The following applies: 60 minutes preincubation with enzyme; Histone H4 peptide substrate; 1 μM Acetyl-CoA; read-out: Biochemical assay:Kat6B IC50. The method, then: (§1) Compounds were suspended in as a stock of 10 mM in DMSO. Compounds were diluted and tested in 10-doses with 3-fold serial dilutions starting with 10 μM as the highest concentration. Compounds were preincubated in the reaction mixture with the enzyme (5 nM KAT6A, amino acids 488-778 with an N-terminal FLAG tag incorporated; 10 nM […] protein, amino acids 657-1069 with an N-terminal GST tag). This preincubation was for 60 minutes prior to the addition of substrate. […] Reactions were performed in reaction buffer 50 mM Tris-HCl, pH 8.0, 50 mM NaCl, 0.1 mM EDTA, […], 1% DMSO and the reactions initiated with the addition of Acetyl-CoA as a co-factor, with histone acetylation measured with a radiometric activity assay using a radioisotope-based filtration assay. Inhibition of acetylation was calculated using with standard curve-fitting model and IC50 determination.

The target of test [1] is Recombinant KAT6A/MOZ (488-778) protein (Homo sapiens (Human), UniProt Q92794). Nature of the test: KAT6A AlphaLISA Inhibition Screening Assay. Format: biochemical. The following applies: for inhibition at 1 µM: read-out: Average Kat6A % inhibition @ 1 μM; for inhibition at 1 µM / Average Kat6A % inhibition @ 1 μM: 1 μM test compound; for inhibition at 10 µM: read-out: Average Kat6A % inhibition @ 10 μM; for inhibition at 10 µM / Average Kat6A % inhibition @ 10 μM: 10 μM test compound. The method, boiled down: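 AlphaLISA read-out with anti-acetyl-lysine acceptor and streptavidin donor beads, % inhibition relative to vehicle. Reaction: biotinylated histone H3 1-21 (200 nM) and acetyl-CoA (400 nM) with KAT6A 488-778 (25 nM), 120 min at room temperature, pH 8.0, 330 nM TSA, after 60 or 10 min enzyme–compound pre-incubation; 10-point 3-fold series from 10 μM.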
Sequence of Recombinant KAT6A/MOZ (488-778) protein (Q92794 488-778): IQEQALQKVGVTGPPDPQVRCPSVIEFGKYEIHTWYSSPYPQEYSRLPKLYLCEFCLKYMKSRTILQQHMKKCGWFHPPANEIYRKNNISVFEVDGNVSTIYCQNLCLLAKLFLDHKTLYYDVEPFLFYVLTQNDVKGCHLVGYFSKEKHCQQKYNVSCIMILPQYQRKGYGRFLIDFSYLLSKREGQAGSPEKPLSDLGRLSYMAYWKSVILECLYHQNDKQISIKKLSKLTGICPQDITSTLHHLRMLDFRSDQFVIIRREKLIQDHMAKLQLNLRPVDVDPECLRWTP
A general note: Alpha assays give light when donor and acceptor beads are brought close together.

The subject of another test is ZR-75-1 cells. Nature of the test: Cell Titer-Glo Luminescent Cell Viability Assay in ZR-75-1 Cells. Type of test: cell-based. The following applies: compounds replenished every 48 hours till day 10, CellTiter-Glo. The protocol:
The CellTiter-Glo® Luminescent Cell Viability Assay is a homogeneous method employed to determine the number of metabolically active cells in culture. On day 0, ZR-75-1 cells were detached completely from the culture flasks using 0.25% trypsin-EDTA (Catalog #25200056, Gibco). ZR-75-1 cells were seeded into white opaque-96 well culture plate (Catalog #6005680, Perkin Elmer) at a density of 1500 cells per well in 200 μL of RPMI 1640 medium (Catalog #A1049101, Gibco) supplemented with 10% Fetal Bovine Serum (Catalog #16000044, Gibco) and 1× Penicillin-Streptomycin (Catalog #15140122, Gibco). The plates were incubated at 37° C. with 5% CO2 for 24 hours. On day 1, the spent media was removed from each well of the plate and 180 μL of fresh RPMI 1640 complete media was added. Test compounds were diluted in 100% DMSO followed by complete media. 20 μL of media containing compounds were added to each well so that the final DMSO concentration was 0.5%. The test compounds were tested for 10 points DRC (10 μM top concentration, 3-fold dilution). The assay plates were incubated at 37° C. with 5% CO2 for 48 hours. The test compounds and media were replenished every 48 hours till day 10.
On day 10, the CellTiter-Glo® 2.0 reagent (Catalog #G9242, Promega) was thawed and equilibrated to room temperature. Assay plates were removed from the incubator and equilibrated to room temperature for about 30 minutes. 100 μL of spent media was removed from each well and then 50 μL of CellTiter-Glo® 2.0 Reagent was added. The plates were incubated on an orbital shaker at room temperature for 10 minutes to induce cell lysis and stabilize luminescent signal. The luminescent signal was recorded using Perkin Elmer Envision multi-mode plate reader. Percent cytotoxicity induced by test compounds was determined relative to vehicle control. EC50 value for test compounds was calculated using GraphPad Prism software (four parameter-variable slope equation).

A further test addresses FLAG-Tagged Kat6A (Homo sapiens (Human), UniProt Q92794). Nature of the test: KAT6A IC50 using FLAG-tagged Kat6A (radioisotope-based filtration assay). The following applies: 60 minutes preincubation with enzyme; Histone H3 peptide substrate; 1 μM Acetyl-CoA; read-out: Biochemical assay:Kat6A IC50. The protocol: as §1

Sequence of GST-Tagged Kat6B (Q8WYB5 657-1069): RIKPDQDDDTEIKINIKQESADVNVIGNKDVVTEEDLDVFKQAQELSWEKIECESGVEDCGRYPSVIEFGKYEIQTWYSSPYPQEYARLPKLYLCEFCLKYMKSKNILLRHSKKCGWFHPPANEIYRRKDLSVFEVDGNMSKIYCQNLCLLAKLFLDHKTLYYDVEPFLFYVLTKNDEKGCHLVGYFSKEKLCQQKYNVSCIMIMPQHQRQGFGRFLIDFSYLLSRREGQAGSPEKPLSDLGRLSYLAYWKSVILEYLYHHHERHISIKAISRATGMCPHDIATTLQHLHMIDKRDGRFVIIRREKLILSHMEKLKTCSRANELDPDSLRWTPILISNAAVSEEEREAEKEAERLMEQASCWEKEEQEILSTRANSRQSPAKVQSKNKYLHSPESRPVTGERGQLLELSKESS
Sequence of FLAG-Tagged Kat6A (Q92794 488-778): as the sequence (Q92794 488-778) above

The IC50 is the concentration at which inhibition is half-maximal. The inhibition is the percentage by which the read-out fell short of the control. For orientation: EC50 means the concentration giving half of the maximal effect. Lower therefore signals higher potency in that assay. As for `C=C(F)C(=O)NCc1cnn(Cc2cc(OC)c3c(NS(=O)(=O)c4cc(CC)ccc4OC)noc3c2)c1` [Syn. Ex. 14, N-((1-((3-((5-ethyl-2-methoxyphenyl)sulfonamido)-4-methoxybenzo[d]isoxazol-6-yl)methyl)-1H-pyrazol-4-yl)methyl)-2-fluoroacrylamide], the IC50 at GST-Tagged Kat6B was 878 nM; on FLAG-Tagged Kat6A it was 2 nM. In test [1], the inhibition at 1 µM was 100%. Besides, the inhibition at 10 µM in test [1] turned out to be 100%. The compound further showed an EC50 in the test on ZR-75-1 cells (Homo sapiens) of under 100 nM.

Regarding `COC(=O)NCc1cnn(Cc2cc(OC)c3c(NS(=O)(=O)c4cc5c(cc4OC)CCC5)noc3c2)c1` [Syn. Ex. 25, methyl ((1-((4-methoxy-3-((6-methoxy-2,3-dihydro-1H-indene)-5-sulfonamido)benzo[d]isoxazol-6-yl)methyl)-1H-pyrazol-4-yl)methyl)carbamate], the results for the IC50 at GST-Tagged Kat6B and at FLAG-Tagged Kat6A were 722 nM and 2 nM, respectively. For the same compound, in test [1], the “Average Kat6A % inhibition @ 1 μM” value is 100%. In test [1], the “Average Kat6A % inhibition @ 10 μM” value came out at 100%. In addition, in the test with ZR-75-1 cells, the EC50 was under 100 nM.

Regarding `COC(=O)NCc1cnn(Cc2cc(OC)c3c(NS(=O)(=O)c4ccccc4OC)noc3c2)c1` [Syn. Ex. 7, methyl ((1-((4-methoxy-3-((2-methoxyphenyl)sulfonamido)benzo[d]isoxazol-6-yl)methyl)-1H-pyrazol-4-yl)methyl) carbamate], the half-inhibitory concentration (IC50) at GST-Tagged Kat6B is 571 nM; on FLAG-Tagged Kat6A, 22 nM. Further, the “Average Kat6A % inhibition @ 1 μM” value in test [1] turned out to be 97%. Also, the “Average Kat6A % inhibition @ 10 μM” value in test [1] was found to be 99%. Moreover, in the test with ZR-75-1 cells, the EC50 was under 100 nM.

As for `C=C(F)C(=O)NCc1cnn(Cc2cc(OC(F)F)c3c(NS(=O)(=O)c4cc(CC)ccc4OC)noc3c2)c1` [Syn. Ex. 52, N-((1-((4-(difluoromethoxy)-3-((5-ethyl-2-methoxyphenyl)sulfonamido)benzo[d]isoxazol-6-yl)methyl)-1H-pyrazol-4-yl)methyl)-2-fluoroacrylamide], the IC50 on GST-Tagged Kat6B was found to be 3670 nM. In test [1], the inhibition at 1 µM was determined as 100% and the inhibition at 10 µM came out at 100%. In the test with ZR-75-1 cells (Homo sapiens), this compound came in with an EC50 of 100 to 1000 nM. Also, the concentration for half-maximal inhibition (IC50) on FLAG-Tagged Kat6A amounted to 12 nM.

(Values after patent US20250122182A1 (Isosterix, Inc., priority 2023, published 2025).)
